Literature values in patent publication US20080233201A1, “Method for Preparing Calibrated Biodegradable Microspheres” (priority 2004, published 2008).

Details: at 20° C.

For `CCOC(C)=O` [Ethyl acetate], the solubility in water is given as 8.7 g/100 g of water.
